Holding throughout (format): in vivo, New Zealand White rabbits
Test [1] concerns rabbit corneas after 1N NaOH alkali burn injury. Nature of the test: Slit lamp stromal opacity area and intensity (ImageJ) one month after alkali burn. The conditions noted are these: topical 0.2 mg/ml losartan and/or 1% prednisolone acetate six times per day. The method, then: All animal treatments and care were approved by the Institutional Animal Care and Use Committee (IACUC) at the Cleveland Clinic Foundation (Cleveland, OH, USA) and the Animal Care and Use Review Office of the Department of the Army (Fort Detrick, MD). All rabbits were treated in accordance with the tenets of the ARVO Statement for the Use of Animals in Ophthalmic and Vision Research. Sixteen 10- to 15-week-old female New Zealand White rabbits weighing 2.5 to 3.0 kg each were included in this example.
(§1) Alkali injuries were produced in one eye of rabbits with previously published methods^10 using 1N sodium hydroxide (Sigma, St. Louis, MO) in balanced salt solution (BSS, 0.64% sodium chloride, 0.075% potassium chloride, 0.048% calcium chloride dihydrate, 0.03% magnesium chloride hexahydrate, 0.39% sodium acetate trihydrate, 0.17% sodium citrate dihydrate, pH 7.5, Alcon, Ft. Worth, TX) and a 5 mm diameter circular Whatman No. 1 filter paper (Cat #1001-6508, Fisher Scientific) wetted with 100 μl of 1N NaOH solution. Following the alkali burn injury, the cornea was irrigated profusely with BSS. Each injured cornea also received one drop of ciprofloxacin (Alcon, Ft. Worth, TX, USA) ten minutes after surgery and four times a day for one week and at least 15 minutes apart from the study medications.
(§2) Worth TX), at least 5 minutes apart, or 4) 50 μl of BSS.
At one month after sodium hydroxide exposure and treatments, with the rabbits under ketamine-xylazine general anesthesia, the eyes were dilated with two drops of 1% tropicamide (Akom Co., Lake Forest, IL) for thirty minutes. The study eye in each rabbit had slit lamp photographs with standardized illumination level and angle of illumination at 20× magnification with a Topcon (Oakland, NJ, USA) SL-D7 slit lamp photography system. For each study eye, the total area of opacity was determined by outlining the opacity with the freehand selection tool using ImageJ 1.53a analysis software calibrated to mm^2. The “raw internal density” in pixels for the opacified area in each cornea was also determined using ImageJ.

The test system of test [2] is central corneal neovascularization (CNV). Nature of the test: Corneal angiography for central corneal neovascularization after alkali burn. Particulars: topical six times per day, one month, all four vehicle corneas positive. The method, then: as §1, §2
All corneas had fluorescent angiography at the peak of dye passage in the cornea immediately after injection of 1.5 ml of 10% sodium fluorescein (McKesson, Irvine, TX) in the central ear vein with the slit lamp system and digital camera system using a “barrier filter” that only transmitted 520-530 nm, the peak of fluorescein emission, with broad illumination of the cornea, as previously described.^11

Another test concerns collagen type IV. The test can be described thus: IHC collagen type IV intensity in anterior and posterior stroma after alkali burn. The conditions noted are these: one month. On the procedure: Multiplex immunohistochemistry (IHC) was performed using previously described methods^8 and primary antibodies (Table 7) confirmed by western blotting and IHC to recognize rabbit antigens or isotypic control antibodies (Thermo Fisher Scientific, Waltham, MA), and secondary fluorescent tagged antibodies (Table 7). The collagen type IV antibody (Cat. #AB769, Millipore, Temecula CA) was raised against purified human and bovine collagen type IV that had been affinity purified with human and bovine collagen type IV crosslinked to agarose and cross-absorbed by the manufacturer with human and bovine collagens type I, II, III, V and VI to eliminate cross-reactivity. This collagen type IV antibody was shown previously to bind rabbit collagen IV in IHC,^8,9 and recognizes the alpha-1/alpha-2 chains but not the alpha-3 to alpha-6 chains. The keratocan antibody is raised against peptide […]-OH (SEQ ID NO:1). This marker was used to identify keratocytes in situ. […] All corneas in each group had IHC for collagen type IV. Images from each cornea were converted to uniform 300 DPI, 875×568 pixel, files. […] The staining intensity within each box was determined with the analyze histogram function and the mean of three boxes was the intensity value in the anterior or posterior stroma for that cornea.

SMILES strings stand for the structures.

For `CC(=O)OCC(=O)[C@@]1(O)CC[C@H]2[C@@H]3CCC4=CC(=O)C=C[C@]4(C)[C@H]3[C@@H](O)C[C@@]21C` [prednisolone acetate], in test [1], the “total corneal opacity area measured with ImageJ, vs BSS vehicle” value is “decreased” and the “total opacity in pixels in the opacified area of cornea, vs vehicle BSS group” value is given as “trended towards decreased total opacity”. In addition, the “corneas (of four) that developed central corneal neovascularization” value in test [2] was “one”. Moreover, the “mean intensity units of collagen type IV in the anterior stroma vs vehicle” value in the test on collagen type IV is “trend towards a decrease”.

For the origin of these results see patent publication US20250367170A1, “TOPICAL ANGIOTENSIN II RECEPTOR BLOCKERS (ARBS) FOR TREATING EYE CONDITIONS” (The Cleveland Clinic Foundation, priority 2022, published 2025).
